Measured values from ChEMBL document CHEMBL4651402, “Screening of ~5500 FDA-approved drugs and clinical candidates for anti-SARS-CoV-2 activity” (2021).

Test system: SARS-CoV-2
Test: microbe, parasite or virus in culture
Conditions: Severe acute respiratory syndrome coronavirus 2, Vero C1008, 48 h

SMILES	IC50 [µM]	IC50 (read-out: pIC50 (converted)) [µM]
C=C(C)[C@H]1CN[C@H](C(=O)O)[C@H]1CC(=O)O [KAINIC ACID]	> 20	> 20
CC1O[C@@H](OC2CC[C@@]3(C)C(CCC4C3CC(O)[C@]3(C)[C@@H](C5=CC(=O)OC5)CCC43O)C2)CC(O)[C@@H]1O[C@H]1CC(O)[C@H](O[C@H]2CC(O)[C@H](O[C@@H]3OC(CO)[C@@H](O)C(O)C3O)C(C)O2)C(C)O1 (stereo not given in full)	> 20	> 20
C#CCN(C)Cc1ccccc1 [PARGYLINE]	> 20	> 20
Nc1ccc(S(=O)(=O)Nc2nccs2)cc1 [SULFATHIAZOLE]	> 20	> 20
C#C[C@]1(O)CCC2C3CCC4=CC(=O)CCC4C3CCC21CC (stereo not given in full)	> 20	> 20
CC(C)N(CCC(C(N)=O)(c1ccccc1)c1ccccc1)C(C)C	> 20	> 20
CN(C)CCCN1c2ccccc2CCc2ccccc21 [IMIPRAMINE]	> 20	> 20
CO[C@@H](C(=O)N1Cc2[nH]nc(NC(=O)c3ccc(N4CCN(C)CC4)cc3)c2C1)c1ccccc1 [DANUSERTIB]	> 20	> 20
COP(=O)(c1cc(C)cc(/C=C/C#N)c1)c1c(C(N)=O)[nH]c2ccc(Cl)cc12 (stereo not given)	> 20	> 20
CC(=O)Oc1cc(C(F)(F)F)ccc1C(=O)O [TRIFLUSAL]	> 20	> 20
Nc1ccn([C@@H]2O[C@H](CO)[C@@H](O)C2(F)F)c(=O)n1 [GEMCITABINE]	> 20	> 20
COc1cc2c(cc1-c1cc3cc4ccoc4cc3oc1=O)OCO2 [PACHYRRIZINE]	> 20	> 20
CC(O)(CS(=O)(=O)c1ccc(F)cc1)C(=O)Nc1ccc(C#N)c(C(F)(F)F)c1 (stereo not given) [BICALUTAMIDE]	> 20	> 20
CCC1(c2ccc(N)cc2)CCC(=O)NC1=O (stereo not given) [AMINOGLUTETHIMIDE]	> 20	> 20
CC(=O)[C@@]1(O)CCC2C3C[C@H](C)C4=CC(=O)CCC4(C)C3CCC21C (stereo not given in full)	> 20	> 20
O=C(NCCc1ccc(O)c(O)c1)C12CC3CC(CC(C3)C1)C2 [DOPAMANTINE]	> 20	> 20
COC(=O)C1=COC(C)C2C[n+]3ccc4c([nH]c5ccccc54)c3CC12 (stereo not given)	> 20	> 20
CC(=O)OCC(=O)[C@@]1(O)[C@H](OC(C)=O)C[C@H]2[C@@H]3CCC4=CC(=O)C=C[C@]4(C)[C@@]3(F)[C@@H](O)C[C@@]21C [TRIAMCINOLONE DIACETATE]	> 20	> 20
CC(c1cc2ccccc2s1)N(O)C(N)=O (stereo not given) [ZILEUTON]	> 20	> 20
CC(=O)OCC(=O)[C@@]12OC(C)(C)O[C@@H]1C[C@H]1[C@@H]3C[C@H](F)C4=CC(=O)C=C[C@]4(C)[C@@]3(F)[C@@H](O)C[C@@]12C [FLUOCINONIDE]	> 20	> 20

SMILES	IC50 [µM]	IC50 (read-out: pIC50 (converted)) [µM]
O=C(c1ccc(OCCN2CCCCC2)cc1)c1c(-c2ccc(O)cc2)sc2cc(O)ccc12 [RALOXIFENE]	> 20	> 20
CC(CN1c2ccccc2Sc2ccc(S(=O)(=O)N(C)C)cc21)N(C)C (stereo not given) [FONAZINE]	> 20	> 20
O=C(O)Cn1c2c(c3cc(F)ccc31)CN(C(=O)c1cccc3ccccc13)CC2 [SETIPIPRANT]	> 20	> 20
CN1CCN2c3ccccc3Cc3ccccc3C2C1 (stereo not given) [MIANSERIN]	> 20	> 20
CCCCOC(=O)NS(=O)(=O)c1sc(CC(C)C)cc1-c1ccc(Cn2ccnc2)cc1 [BULOXIBUTID]	> 20	> 20
CC(C)(C)NCC(O)c1ccc(O)c(CS(C)(=O)=O)c1 (stereo not given) [SULFONTEROL]	> 20	> 20
O=C(CCCN1CCC(n2c(=S)[nH]c3ccccc32)CC1)c1ccc(F)cc1 [TIMIPERONE]	> 20	> 20
COc1ccc(C(=O)c2ccc(C)cc2)c(O)c1 [MEXENONE]	> 20	> 20
CCN(CC)C(=O)C1C=C2c3cccc4[nH]cc(c34)CC2N(C)C1 (stereo not given)	> 20	> 20
CCN(C/C=C\c1ccc(C2CCCCC2)c(Cl)c1)C1CCCCC1	> 20	> 20
C#C[C@]1(O)CC[C@H]2[C@@H]3CCC4=Cc5oncc5C[C@]4(C)[C@H]3CC[C@@]21C [DANAZOL]	> 20	> 20
CN1CCC[C@H]1c1cccnc1 [NICOTINE]	> 20	> 20
CCCCCCCCCCCCCCC1(C(=O)OC)CO1 (stereo not given) [METHYL PALMOXIRATE]	> 20	> 20
C[C@@H]1CC[C@@]2(OC1)OC1CC3C4CC[C@H]5CC(O)CC[C@]5(C)C4CC[C@]3(C)C1[C@@H]2C (stereo not given in full)	> 20	> 20
Nc1ccc(S(=O)(=O)Nc2ccc(Cl)nn2)cc1 [SULFACHLORPYRIDAZINE]	> 20	> 20
CC(=O)OC1CCC2(C)C3CC=C4C5CC(C)(C)CCC5(C(=O)O)CC[C@@]4(C)C3(C)CC[C@H]2C1(C)C (stereo not given in full)	> 20	> 20
Clc1cnccn1	> 20	> 20
CN(C(=O)c1c(O)c2ccccc2n(C)c1=O)c1ccccc1 [ROQUINIMEX]	> 20	> 20
COc1nc(N)nc2c1ncn2[C@@H]1O[C@H](CO)[C@@H](O)[C@@H]1O [NELARABINE]	> 50.1	> 50.1
O=C1CCCN1CC#CCN1CCCC1 [OXOTREMORINE]	> 20	> 20

SMILES	IC50 [µM]	IC50 (read-out: pIC50 (converted)) [µM]
CC(=O)[C@@]1(O)CC[C@H]2[C@@H]3CCC4=CC(=O)C=C[C@]4(C)[C@H]3[C@@H](O)C[C@@]21C [DEPRODONE]	> 20	> 20
C[C@H](CS)C(=O)N1CCC[C@H]1C(=O)O [CAPTOPRIL]	> 20	> 20
CCOC(=O)CC(SP(=S)(OC)OC)C(=O)OCC (stereo not given) [MALATHION]	> 20	> 20
Cc1cc(CCCCCOc2c(Cl)cc(C3=NCCO3)cc2Cl)on1 [WIN-54954]	> 20	> 20
CC(N)C(=O)c1ccccc1 (stereo not given) [DEALKYLATED DIETHYLPROPION]	> 20	> 20
Oc1ccc(O)cc1 [HYDROQUINONE]	> 20	> 20
CO[C@H]1C[C@H](O[C@H]2[C@H](C)[C@@H](O[C@@H]3O[C@H](C)C[C@H](N(C)C)[C@H]3OC(C)=O)[C@@H](C)C[C@@]3(CO3)C(=O)[C@H](C)[C@H](OC(C)=O)[C@@H](C)[C@@H](C)OC(=O)[C@@H]2C)O[C@@H](C)[C@@H]1OC(C)=O	> 20	> 20
CC(O)Cn1cnc2c1c(=O)n(C)c(=O)n2C (stereo not given) [PROXYPHYLLINE]	> 20	> 20
OCC(O)C(O)CO (stereo not given)	> 20	> 20
CCCCNc1ccc(C(=O)OCCN(C)C)cc1 [TETRACAINE]	> 20	> 20
Cc1cc(/C=C\C#N)cc(C)c1Nc1ccnc(Nc2ccc(C#N)cc2)n1	> 20	> 20
Cc1nccc2c1[nH]c1ccccc12 [HARMAN]	> 20	> 20
CCN1C(=O)NC(c2ccccc2)C1=O (stereo not given) [ETHOTOIN]	> 20	> 20
C[C@H](CCC(=O)NCCS(=O)(=O)O)[C@H]1CC[C@H]2[C@@H]3[C@@H](O)C[C@@H]4C[C@H](O)CC[C@]4(C)[C@H]3CC[C@]12C [TAURURSODIOL]	> 20	> 20
CC12CCCC1C1CC[C@H]3CCCC[C@]3(C)C1CC2 (stereo not given in full)	> 20	> 20
NC(=S)N/N=C/c1ccncc1	> 20	> 20
COc1nc(C)nc(Cl)c1NC1=NCCN1 [MOXONIDINE]	> 20	> 20
COc1cc2nc(N3CCN(C(=O)C4COc5ccccc5O4)CC3)nc(N)c2cc1OC (stereo not given) [DOXAZOSIN]	> 20	> 20
CO[C@H]1C[C@@H]2CC[C@@H](C)[C@@](O)(O2)C(=O)C(=O)N2CCCC[C@H]2C(=O)O[C@H]([C@H](C)C[C@@H]2CC[C@@H](OC(=O)C(C)(CO)CO)[C@H](OC)C2)CC(=O)[C@H](C)/C=C(\C)[C@@H](O)[C@@H](OC)C(=O)[C@H](C)C[C@H](C)/C=C/C=C/C=C/1C [TEMSIROLIMUS]	> 20	> 20
C=C1[C@H](n2ccc(N)nc2=O)O[C@H](CO)[C@H]1O	> 20	> 20
